Molecular target: T1, RING1B-BMI1 (Homo sapiens, UniProt Q99496)
T1 sequence (Q99496 1-336): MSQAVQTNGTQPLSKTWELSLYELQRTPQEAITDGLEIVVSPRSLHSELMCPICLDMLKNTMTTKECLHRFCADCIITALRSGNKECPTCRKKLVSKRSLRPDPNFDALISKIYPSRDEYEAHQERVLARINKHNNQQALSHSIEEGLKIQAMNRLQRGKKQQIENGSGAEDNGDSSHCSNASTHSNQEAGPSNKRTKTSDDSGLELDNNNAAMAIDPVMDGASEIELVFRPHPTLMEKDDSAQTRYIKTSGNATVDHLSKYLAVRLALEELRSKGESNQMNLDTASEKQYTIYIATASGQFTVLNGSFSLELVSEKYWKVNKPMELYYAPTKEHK
T1 sequence (P35226 1-326 partner): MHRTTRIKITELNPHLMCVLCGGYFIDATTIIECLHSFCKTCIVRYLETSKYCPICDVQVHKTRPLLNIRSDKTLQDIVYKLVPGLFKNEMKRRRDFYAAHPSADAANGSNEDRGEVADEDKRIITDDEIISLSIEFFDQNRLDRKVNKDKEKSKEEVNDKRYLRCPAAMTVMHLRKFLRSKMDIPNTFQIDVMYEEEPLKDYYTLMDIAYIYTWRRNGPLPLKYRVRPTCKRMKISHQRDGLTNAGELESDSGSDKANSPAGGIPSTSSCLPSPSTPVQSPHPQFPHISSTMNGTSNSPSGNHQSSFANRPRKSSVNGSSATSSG
Assay: KD classes of Table A (direct binding to Ring1B-Bmi1)
Details: class given in Table A

Row | SMILES | Kd
1 | Cn1ccc2c(-c3ccc(C(=O)O)[nH]3)cccc21 [compound 127] | > 100 µM
2 | Cc1cccc(-c2ccc(C(=O)O)[nH]2)c1 [compound 128] | > 100 µM
3 | CCc1cccc(-c2ccc(C(=O)O)[nH]2)c1 [compound 129] | > 100 µM
4 | O=C(O)c1ccc(-c2ccccc2O)[nH]1 [compound 130] | > 100 µM
5 | O=C(O)c1ccc(-c2cccc(OCC3CC3)c2)[nH]1 [compound 131] | > 100 µM
6 | CC(C)CCOc1cccc(-c2ccc(C(=O)O)[nH]2)c1 [compound 132] | > 100 µM
7 | COc1cc(OC)cc(-c2ccc(C(=O)O)[nH]2)c1 [compound 133] | > 100 µM
8 | O=C(O)c1ccc(-c2cccc3[nH]ccc23)[nH]1 [compound 134] | > 100 µM
9 | O=C(O)c1ccc(-c2cccc(OCc3ccccc3)c2)[nH]1 [compound 135] | > 100 µM
10 | O=C(O)c1ccc(-c2ccccc2Oc2ccccc2)[nH]1 [compound 136] | > 100 µM
11 | COc1ccc(C)cc1-c1ccc(C(=O)O)[nH]1 [compound 137] | > 100 µM
12 | O=C(O)c1ccc(-c2ccccc2OCc2ccccc2)[nH]1 [compound 138] | > 100 µM
13 | O=C(O)c1ccc(-c2cccc(Oc3ccccc3)c2)[nH]1 [compound 139] | > 100 µM
14 | CCOc1ccccc1-c1ccc(C(=O)O)[nH]1 [compound 140] | > 100 µM
15 | COc1cccc(-c2ccc(C(=O)O)[nH]2)c1 [compound 141] | > 100 µM
16 | COc1ccccc1-c1ccc(C(=O)O)[nH]1 [compound 142] | > 100 µM
17 | O=C(O)c1ccc(-c2ccc(Cl)cc2)[nH]1 [compound 143] | > 100 µM
18 | O=C(O)c1ccc(-c2ccccc2)[nH]1 [compound 144] | > 100 µM
19 | NC(=O)c1ccc(-c2cccc3[nH]ccc23)[nH]1 [compound 145] | > 100 µM
20 | O=C(O)c1ccc(-c2cccc3c2ccn3CCO)[nH]1 [compound 146] | > 100 µM

Row | SMILES | Kd
21 | Nc1ccccc1-c1ccc(C(=O)O)[nH]1 [compound 147] | > 100 µM
22 | CCOc1cccc(-c2ccc(C(=O)O)[nH]2)c1 [compound 148] | > 100 µM
23 | O=C(O)c1ccc(-c2ccc(C(F)(F)F)cc2)[nH]1 [compound 150] | > 100 µM
24 | Cc1ccc(-c2ccc(C(=O)O)[nH]2)cc1 [compound 151] | > 100 µM
25 | O=C(O)c1ccc(-c2ccccc2)s1 [compound 152] | > 100 µM
26 | NCCn1ccc2c(-c3ccc(C(=O)O)[nH]3)cccc21 [compound 153] | > 100 µM
27 | Cc1ccccc1-c1ccc(C(=O)O)[nH]1 [compound 154] | > 100 µM
28 | COc1ccc(OC)c(-c2ccc(C(=O)O)[nH]2)c1 [compound 155] | > 100 µM
29 | O=C(O)c1ccc(-c2cccc(O)c2)[nH]1 [compound 156] | > 100 µM
30 | COc1ccc(-c2ccc(C(=O)O)[nH]2)cc1 [compound 157] | > 100 µM
31 | COC(=O)c1ccc(-c2ccccc2)[nH]1 [compound 158] | > 100 µM
32 | O=C(O)c1ccc(-c2ccc(-c3ccccc3)cc2)s1 [compound 159] | > 100 µM
33 | O=C(O)c1ccc(-c2cccc3ncccc23)[nH]1 [compound 160] | > 100 µM
34 | CCCCc1c(-c2cccc3[nH]ccc23)[nH]c(C(=O)O)c1-c1ccccc1Cl [compound 162] | > 100 µM
35 | CCOC(=O)c1[nH]c(-c2cccc3[nH]ncc23)c(CC)c1-c1ccc(OC)cc1Cl [compound 163] | > 100 µM
36 | CCOC(=O)c1[nH]c(-c2c(OC)cccc2OC)c(CC)c1-c1ccc(OC)cc1Cl [compound 164] | > 100 µM
37 | CCC(C)c1c(-c2cc(F)cc3[nH]ccc23)[nH]c(C(=O)O)c1-c1cc(OC)cc2[nH]ccc12 (stereo not shown) [compound 171] | < 20 µM
38 | CC(C)c1c(-c2cc(F)cc3[nH]ccc23)[nH]c(C(=O)O)c1-c1cccc2scnc12 [compound 172] | < 20 µM
39 | COc1cc(-c2c(C(=O)O)[nH]c(-c3cc(F)cc4[nH]ccc34)c2C2CCCC2)c2cc[nH]c2c1 [compound 173] | < 20 µM
40 | COc1cc(-c2c(C(=O)O)[nH]c(-c3cc(F)cc4[nH]ccc34)c2CC(C)C)c2cc[nH]c2c1 [compound 174] | < 20 µM

From patent publication US12466813B2, “PRC1 inhibitors and methods of treatment therewith” (The Regents of the University of Michigan, priority 2018, dated 2025)
